According to patent US20070219238A1 (priority 2004, published 2007):
Read-outs that look alike come from different tables or passages of the source.

Test system: Phytophthora infestans
Type: in vivo
Settings: individual active compound, potted tomato plants, protective, evaluated after 6 days

CC1CCN(c2c(-c3c(F)cc(F)cc3F)c(Cl)nc3ncnn23)CC1 [I, 5-chloro-7-(4-methylpiperidin-1-yl)-6-(2,4,6-trifluorophenyl)[1,2,4]triazolo [1,5-a]pyrimidine]
Efficacy in % of the untreated control (50 ppm in the spray liquor): 0%

[Cl-].[Cu+2].[Cu+2].[OH-].[OH-].[OH-] [II-1, copper oxychloride]
Efficacy in % of the untreated control (50 ppm in the spray liquor): 0% | Efficacy in % of the untreated control (100 ppm in the spray liquor): 22%

O=C([O-])[O-].[Cu+2].[Cu+2].[OH-].[OH-] [II-2, (basic) copper carbonate]
Efficacy in % of the untreated control (50 ppm in the spray liquor): 0% | Efficacy in % of the untreated control (100 ppm in the spray liquor): 11%

[Cu+2].[OH-].[OH-] [II-3, copper hydroxide]
Efficacy in % of the untreated control (50 ppm in the spray liquor): 11% | Efficacy in % of the untreated control (100 ppm in the spray liquor): 22%

CC1CCN(c2c(-c3c(F)cccc3Cl)c(Cl)nc3ncnn23)CC1 [comparative compound A]
Efficacy in % of the untreated control (50 ppm in the spray liquor): 0%

C[C@H](Nc1c(-c2c(F)cc(F)cc2F)c(Cl)nc2ncnn12)C(F)(F)F [comparative compound B]
Efficacy in % of the untreated control (50 ppm in the spray liquor): 0%
